Data set [1] deals with HSV-1 TK. The class given is biochemical, herpes simplex virus type 1. The note with it: for Decrease in kcat for GCV compared to wild-type enzyme: substrate GCV. Here is the method:
For determination of Km values of thymidine and GCV for the four enzymes, the filter binding assay was utilized. The basic reaction components were as above, and the following enzyme concentrations, substrate ranges and times were used under linear initial velocity conditions: for [^3H]thymidine: parent Gln-125TK: 0.1 μg TK, 0.1-4 μM, 10 min; Asn-125TK: 0.2 μg TK, 0.25-10 μM, 15 min; Asp-125TK: 4 μg TK, 0.1-2.5 μM, 30 min; Glu-125TK 0.5 μg TK, 0.5-2.5 μM, 15 min. For [^3H]GCV: parent Gln-125TK: 2 μg TK, 5-100 μM, 15 min; Asn-125TK: 0.6 μg TK, 0.5-15 μM, 15 min; Asp-125TK: Not determined; Glu-125TK 4 μg TK, 50-1000 μM, 25 min. Each reaction was done in triplicate. For calculation of kinetic constants, non-linear regression Michaelis-Menten analyses were done using PSI-PLOT version 5.0 (Poly Software International).
Unlike the substrate screening assays presented in Table 1, linear velocity conditions for each enzyme and substrate were established prior to Km determinations.

In data set [2] the test system is HCT-116 cells. The experiment in a line: Clonal dilution assay for GCV sensitivity. The conditions noted are these: for Decrease in cell colony numbers: 24 hours, FIG. 4. The class given is cell-based, human. Here is the method:
Parental HCT-116 (large square), wild-type HSV-1 TK cells (triangle), Asn-125TK cells (small square) and Glu-125TK cells (diamond) were treated with 0, 0.1, 1 or 10 μM GCV in triplicate for 24 hours. After this time, each well of cells was sequentially diluted from 1:10 to 1:10,000 in 1 ml of fresh media on a separate 24 well plate. After 7 days, surviving cell colonies were fixed in 100% methanol, stained with 0.1% methylene blue and counted.
For determination of GCV sensitivity, parental HCT-116 and each HSV-1 TK expressing cells were seeded in 24 well plates (2×10^5/well) in 1 ml of media. The next day, 0, 0.1, 1 or 10 μM GCV was added to each cell line in triplicate. After 24 hours, for each well the media was removed, cells were rinsed twice in fresh media, trypsinized, then media was added to 1 ml per well. Each well of cells was then sequentially diluted from 1:10 to 1:10,000 in 1 ml of fresh media on a separate 24 well plate. After 7 days, surviving cell colonies were fixed in 100% methanol, stained with 0.1% methylene blue and counted. For bystander effect assays, each of the three HSV-1 TK expressing cell lines were plated with parental HCT-116 cells (total 2×10^5/well) in the following proportions: (parental: HSV-1TK cells) 100%:0; 95%:5%; 90%:10%; 75%:25%; 50%:50% and 0:100%. After two days, 25 μM GCV was added in 1 ml fresh media. After 24 hrs, the media was removed and cells from each well were diluted from 1:10 to 1:10,000 as described above. After 7 days, surviving cell colonies were fixed and stained for counting.
Cells previously plated in 24 well plates were treated with GCV (0-10 μM) in triplicate for 24 hours. Following drug removal, cells were diluted and replated in fresh media from dilutions of 1:10 to 1:10,000. Surviving cell colonies were counted 6-7 days later.

Data set [3] relates to HCT-116 cells. The experiment in a line: DAPI-staining of apoptotic cells. The class given is cell-based, human. The note with it: 25 μM GCV, 36 or 84 hrs, FIG. 7.
Protocol: The HCT-116 cells expressing wild-type HSV-1 TK (FIG. 7A), Asn-125TK (FIG. 7B), or Glu-125TK (FIG. 7C) were grown on chamber slides and incubated with 25 μM GCV for 36 or 84 hours. Control cultures for each cell line without GCV addition (top row) were evaluated after 84 hours. At the indicated time point, cells were fixed in methanol, stained with DAPI, and nuclei visualized by fluorescent microscopy. Each image is magnified 40×.
Parental HCT-116 cells and each HSV-1 TK expressing cell line were plated (5×10^4 cells/well) in 8-well plastic chamber slides (Lab-Tek) and treated plus or minus 25 mM GCV for 36 or 84 hrs. At either time point, cells were washed with phosphate-buffered saline followed by staining in 1 μg/ml DAPI (4′,6′-diamidine-2′-phenylindoledihydrochloride) in 100% methanol at 37° C. for 10 min. After rinsing, the stained cells were visualized with a Zeiss flourescent microscope at 40× magnification with a DAPI-specific filter.
In data set [4] the test system is HSV-1 TK. The experiment in a line: Substrate screen: phosphorylation of thymidine, TMP, GCV, ACV, dC, AZT by partially purified HSV-1 TKs. The data set is classed as biochemical, herpes simplex virus type 1. The note with it: for Product formation ACVMP: substrate ACV 50 μM; for Product formation AZTMP: substrate AZT 200 μM; for Product formation GCVMP: substrate GCV 50 μM; for Product formation TDP (TMPK activity): substrate TMP 20 μM; for Product formation dCMP: substrate dC 200 μM; for Product formation TMP: substrate thymidine 4 μM. Here is the method: The activity of the purified HSV-1 TK was determined using the following standard reaction mixture for thymidine as a substrate (12): 3 μg of protein, 4 μM [^3H-methyl]thymidine (0.1 mCi/mmol), 20 mM potassium phosphate, pH 7.6, 1 mM DTT, 5 mM ATP, 5 mM MgCl2, 25 mM NaF, 40 mM KCl, and 0.5 mg/ml BSA in a total volume of 25 μl for 10 minutes at 37° C. To identify phosphorylated products, 20 μl of the reaction mixture was loaded onto a DE-81 filter and dried, washed once in 1 mM ammonium formate, twice more in 95% ethanol, and counted for radioactivity (12). Radioactivity was determined using an LKB 1214 Rackbeta liquid scintillation counter and corrected for background using controls with enzyme incubated in the absence of ATP. For TMPK activity, 20 μM [^3H-methyl]TMP was substituted for thymidine in the above assay mixture, and [^3H]TDP product was determined by separation from [^3H]TMP on thin layer PEI-cellulose plates developed in 0.35M LiCl (21). Amount of product converted to TDP was quantitated by scintillation counting of the excised TMP and TDP spots. The filter binding assay was used to quantitate the phosphorylation of [^3H]dC (200) μM and [^3H]AZT (200 μM) with the four enzymes. To compare relative enzymatic activities for [^3H]GCV (50 μM) and [^3H]ACV (50 μM), reactions were loaded onto small DE-52 columns packed in Pasteur pipettes as previously described (22).
As an initial screen for activity, each expressed HSV-1 TK enzyme was assayed for phosphorylation of the following substrates: thymidine (4 μM), TMP (20 μM), ACV (50 μM), GCV (50 μM), deoxycytidine (dC, 200 μM), or 3′-azido-2′,3′dideoxythymidine (AZT, 200 μM). Enzymatic conditions for optimal wild-type HSV-1 TK activities were utilized, thus results presented in Table 1 for each substrate were normalized to 100% values for comparative purposes. As expected, the wild-type Gln-125 HSV-1 TK efficiently phosphorylated each of these substrates. For each mutant, there was a striking decrease in their ability to phosphorylate pyrimidine nucleosides, and minimal TMPK activity for the TMP substrate.

Where [5] appears, read: substrate ganciclovir, read-out: Km ganciclovir.
The mark [6] stands for this setting: substrate thymidine, read-out: Km thymidine.

Like-named read-outs stand apart in the source and are kept apart here.

By Km is commonly meant the substrate concentration at which the rate is half of its maximum. As for Asn-125, the “Decrease in kcat for GCV compared to wild-type enzyme” value in the data set with HSV-1 TK [1] is 6 fold. Also, the kcat ganciclovir in the data set on HSV-1 TK [1] (substrate ganciclovir) was 0.08 s⁻¹. For the same substance, the Km in the data set on HSV-1 TK [1] (setting [5]) was 50 µM. Also, in the data set with HSV-1 TK [1] (substrate thymidine), the “Change of kcat for thymidine relative to wild-type (in words)” value is on record as “doubled”, the “Increase of Km for thymidine relative to wild-type enzyme” value was ~20 fold and the kcat thymidine amounted to 0.13 s⁻¹. Further, the Michaelis constant (Km) with HSV-1 TK [1] (setting [6]) was found to be 20 µM. The “Decrease in cell colony numbers” value in the data set with HCT-116 cells [2] (0.1 μM GCV) came to 2 log. In the data set with HCT-116 cells [2] (10 μM GCV), the “Decrease in cell colony numbers” value is on record as 4 log. For the same substance, in the data set on HCT-116 cells [3], the “Nuclear morphology of DAPI-stained nuclei after GCV” value (“Nuclear morphology” below) is “progressive increases in condensed and fragmented nuclei characteristic of apoptosis”. Also, the “Metabolism of GCV and ACV (in words)” value with HSV-1 TK [4] (GCV 50 μM, ACV 50 μM) was “retained most of these phosphorylation activities”. Also, in the data set on HSV-1 TK [4], the “Product formation ACVMP” value is 92 % of wild-type Gln-125, the “Product formation AZTMP” value is recorded as 9 % of wild-type Gln-125, the “Product formation GCVMP” value was 85 % of wild-type Gln-125 and the “Product formation TDP (TMPK activity)” value is 6 % of wild-type Gln-125. In addition, in the data set with HSV-1 TK [4], the “Product formation dCMP” value is on record as 0.2 % of wild-type Gln-125 and the “Product formation TMP” value was 22 % of wild-type Gln-125.

Regarding “Gln-125 (WT): wild-type herpes simplex virus type 1 thymidine kinase with glutamine at position 125, parent enzyme [reference compound]”, the kcat ganciclovir in the data set on HSV-1 TK [1] (substrate ganciclovir) came to 0.47 s⁻¹. Also, in the data set on HSV-1 TK [1] (setting [5]), the Km worked out at 69 µM. Also, the kcat thymidine in the data set on HSV-1 TK [1] (substrate thymidine) is 0.06 s⁻¹. In the data set with HSV-1 TK [1] (setting [6]), the Km was 0.9 µM. The “Decrease in cell colony numbers” value in the data set on HCT-116 cells [2] (0.1 μM GCV) came to 2 log. For the same substance, the “Decrease in cell colony numbers” value in the data set on HCT-116 cells [2] (10 μM GCV) came out at 4 log. Also, the “Nuclear morphology” value in the data set with HCT-116 cells [3] is “progressive increases in condensed and fragmented nuclei characteristic of apoptosis”. Also, in the data set on HSV-1 TK [4], the “Product formation ACVMP” value is 100 % of wild-type Gln-125, the “Product formation AZTMP” value is given as 100 % of wild-type Gln-125, the “Product formation GCVMP” value is on record as 100 % of wild-type Gln-125 and the “Product formation TDP (TMPK activity)” value is on record as 100 % of wild-type Gln-125. In the data set on HSV-1 TK [4], the “Product formation dCMP” value is listed as 100 % of wild-type Gln-125 and the “Product formation TMP” value was 100 % of wild-type Gln-125.

Regarding Glu-125, the “Decrease in kcat for GCV compared to wild-type enzyme” value in the data set on HSV-1 TK [1] was found to be 12 fold. The kcat ganciclovir in the data set on HSV-1 TK [1] (substrate ganciclovir) turned out to be 0.04 s⁻¹. Moreover, the Km with HSV-1 TK [1] (setting [5]) was determined as 473 µM. Also, in the data set on HSV-1 TK [1] (substrate thymidine), the “Decrease in kcat for thymidine relative to wild-type” value was determined as 20 fold, the “Increase of Km for thymidine relative to wild-type enzyme” value is “approximately 3 fold” and the kcat thymidine amounted to 0.003 s⁻¹. In the data set on HSV-1 TK [1] (setting [6]), the Km was determined as 3 µM. For the same substance, in the data set on HCT-116 cells [2] (0.1 μM GCV), the “Decrease in cell colony numbers” value is given as “no reduction”. Besides, the “Decrease in cell colony numbers” value in the data set with HCT-116 cells [2] (1 μM GCV) stood at 0.7 log. For the same substance, the “Decrease in cell colony numbers” value in the data set with HCT-116 cells [2] (10 μM GCV) was 2.5 log. The “Reduction in cell colony numbers” value in the data set with HCT-116 cells [2] (20-110 μM GCV (data not shown)) is “over 3 log”. For the same substance, the “Nuclear morphology” value in the data set with HCT-116 cells [3] is “fewer swelled nuclei and little evidence of apoptotic nuclei”. Further, in the data set with HSV-1 TK [4], the “Product formation ACVMP” value is reported as 7 % of wild-type Gln-125, the “Product formation AZTMP” value was 48 % of wild-type Gln-125, the “Product formation GCVMP” value is 5 % of wild-type Gln-125 and the “Product formation TDP (TMPK activity)” value is 7 % of wild-type Gln-125. In addition, in the data set on HSV-1 TK [4], the “Product formation dCMP” value was 0.2 % of wild-type Gln-125 and the “Product formation TMP” value is 43 % of wild-type Gln-125.

Source of the values: patent publication US6610289B2, “Mutated herpes simplex virus type 1 thymidine kinases and uses thereof” (The Board of Trustees of the University of Arkansas, priority 1998, dated 2003).
